Columns and labels:
[1] = tested on: 5'-Cy5 RET (DNA, G4) GGGGCGGGGCGGGGCGGGGG; test: fluorescence polarization, single-site fit; details: K+ (20 mM potassium phosphate, 80 mM KCl); pH 7.4, room temperature, 20 nM DNA; ligand 0-2 μM
[2] = tested on: Myc2345 (DNA, G4) TGAGGGTGGGTAGGGTGGGGAA; test: ESI mass spectrometry; details: K+ (20 mM potassium phosphate, 80 mM KCl); pH 7.4, 100 μM DNA
[3] = tested on: MYC G4 (Myc2345_T23) (DNA, G4) TGAGGGTGGGTAGGGTGGGTAA; test: differential scanning calorimetry; details: 100 μM DNA, DNA:ligand 1:4 (400 μM BTO-28), 1.0°C/min
[4] = tested on: 3'-Cy5 MYC G4 (DNA, G4) TGAGGGTGGGTAGGGTGGGTAA; test: fluorescence polarization, single-site fit; details: K+ (20 mM potassium phosphate, 80 mM KCl); pH 7.4, room temperature, 20 nM DNA; weaker than 5' end
[5] = tested on: 5'-Cy5 hTERT (DNA, G4) GGGTTAGGGTTAGGGTTAGGGTTAGGGTTAG; test: fluorescence polarization, single-site fit; details: K+ (20 mM potassium phosphate, 80 mM KCl); pH 7.4, room temperature, 20 nM DNA; ligand 0-2 μM
[6] = tested on: MYC G4 (Myc2345_T23) (DNA, G4) TGAGGGTGGGTAGGGTGGGTAA; test: NMR solution structure; details: K+ (2 mM potassium phosphate, 8 mM KCl); pH 7.4, 298 K
[7] = tested on: dsDNA (DNA, duplex) CAATCGGATCGAATTCGATCCGATTG; test: differential scanning calorimetry; details: 100 μM DNA, DNA:ligand 1:4 (400 μM BTO-28), 1.0°C/min
[8] = tested on: 5'-Cy5 KRAS (DNA, G4) AGGGCGGTGTGGGAAGAGGGAAGAGGGGGAGGCAG; test: fluorescence polarization, single-site fit; details: K+ (20 mM potassium phosphate, 80 mM KCl); pH 7.4, room temperature, 20 nM DNA; ligand 0-2 μM
[9] = tested on: 5'-Cy5 dsDNA (DNA, duplex) CAATCGGATCGAATTCGATCCGATTG; test: fluorescence polarization, single-site fit; details: K+ (20 mM potassium phosphate, 80 mM KCl); pH 7.4, room temperature, 20 nM DNA; ligand 0-2 μM
[10] = tested on: Myc2345 (DNA, G4) TGAGGGTGGGTAGGGTGGGGAA; test: 1H NMR titration and 15N HSQC
[11] = tested on: 5'-Cy5 KIT (DNA, G4) GGGAGGGAGGGCGCTGGGAGGAGGG; test: fluorescence polarization, single-site fit; details: K+ (20 mM potassium phosphate, 80 mM KCl); pH 7.4, room temperature, 20 nM DNA; ligand 0-2 μM
[12] = tested on: Myc2345 (DNA, G4) TGAGGGTGGGTAGGGTGGGGAA; test: differential scanning calorimetry; details: 100 μM DNA, DNA:ligand 1:4 (400 μM BTO-28), 1.0°C/min
[13] = tested on: 5'-Cy5 MYC G4 (DNA, G4) TGAGGGTGGGTAGGGTGGGTAA; test: fluorescence polarization, single-site fit; details: K+ (20 mM potassium phosphate, 80 mM KCl); pH 7.4, room temperature, 20 nM DNA; high-affinity site; Cy5 end not given, 5' inferred
[14] = tested on: NHE III1 (DNA, G4) TGGGGAGGGTGGGGAGGGTGGGGAAGG; test: differential scanning calorimetry; details: 100 μM DNA, DNA:ligand 1:4 (400 μM BTO-28), 1.0°C/min
[15] = tested on: MYC G4 (Myc2345_T23) (DNA, G4) TGAGGGTGGGTAGGGTGGGTAA; test: ESI mass spectrometry; details: K+ (20 mM potassium phosphate, 80 mM KCl); pH 7.4, 100 μM DNA

KD [1]: > 2 µM | binding [2]: yes | ΔTm [3]: 25.6 °C | KD [4]: 0.0898 ± 0.00507 µM | KD [5]: > 2 µM | binding [6]: yes | ΔTm [7]: -4.3 °C | KD [8]: 0.67 ± 0.03509 µM | KD [9]: > 2 µM | binding [10]: yes | KD [11]: 1.246 ± 0.07791 µM | ΔTm [12]: 26.0 °C | KD [13]: 0.0068 µM | binding [14]: yes | binding [15]: yes
SMILES: Cc1cc(/C=C2\Sc3ccccc3N2CCCN2CCCC2)c2ccccc2[n+]1C
